Data: patent US7098334B2 (Industrial Research Limited, priority 2002, dated 2006)

Assays:
[1] = target: T1, MTAP activity in mouse blood (Mus musculus, UniProt Q9CQ65); test: MTAP activity in blood of treated mice; type: in vivo; conditions: interperitoneal injection of 10 micromoles; blood sampled 30 min following injection
T1 construct: from tissue; host or cells: mouse blood
T1 sequence (Q9CQ65 1-283): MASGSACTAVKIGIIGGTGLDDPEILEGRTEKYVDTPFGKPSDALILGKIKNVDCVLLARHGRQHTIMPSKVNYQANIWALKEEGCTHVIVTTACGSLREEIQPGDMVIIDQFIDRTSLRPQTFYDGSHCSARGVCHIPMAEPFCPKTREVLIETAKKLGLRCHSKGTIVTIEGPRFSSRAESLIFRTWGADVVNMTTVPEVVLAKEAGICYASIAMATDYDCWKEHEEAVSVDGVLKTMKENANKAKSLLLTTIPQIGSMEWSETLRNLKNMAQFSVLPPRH
Protocol: (§1) 5′-Methylthio-Immucillin-A (5′-methylthio-ImmA) (10 micromoles) was administered to mice orally, by interperitoneal injection or by intravenous injection. Following 30 to 60 min, blood was collected or mice were sacrificed and the liver removed for tissue analysis. MTAP activity in mouse blood was measured by the conversion of radioactive MTA to radioactive 5-methylthio-α-D-ribose 1-phosphate (MTR-1P). The assay mixture contained 50 mM phosphate buffer, 1 mM dithiothreitol, 26 μM [5′-^14C]MTA with specific radioactivity of 2 μCi/μmole, 0.5% triton X-100, and the desired amount of tissue sample, in a total volume of 100 μL. Reactions were stopped at various times by the addition of perchloric acid to decrease the pH to 2.0. The protein precipitate was removed by centrifugation, and the supernatant was neutralized to near pH 7 before being placed on a charcoal column. The column was eluted with buffer near pH 7. The product MTR-1P elutes, while unreacted [5′-^14C]MTA remains on the column. The amount of MTAP activity from control and treated mice is compared.

MTAN = MTAN (Escherichia coli, UniProt P0AF12); test: Enzyme inhibition assay, MTAN (slow-onset inhibition constants); type: biochemical; conditions: MTAN
MTAN, sequence (P0AF12 whole entry): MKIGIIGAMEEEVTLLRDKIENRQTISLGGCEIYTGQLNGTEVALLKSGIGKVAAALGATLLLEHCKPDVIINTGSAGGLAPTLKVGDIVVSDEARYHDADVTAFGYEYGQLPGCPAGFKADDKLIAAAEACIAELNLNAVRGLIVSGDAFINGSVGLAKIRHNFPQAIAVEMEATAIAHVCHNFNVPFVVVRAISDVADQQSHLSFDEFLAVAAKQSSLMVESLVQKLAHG
Protocol: Ki as shown in Tables 1 and 2 is the initial inhibition constant formed by the enzyme-inhibitor complex, and Ki* is the equilibrium dissociation constant for inhibition that is observed following a period of slow-onset, tight binding inhibition. Ki* is the biologically effective constant.
Enzyme assays were conducted to assess the effectiveness of selected compounds of the invention as inhibitors of MTAP and MTAN.
Inhibitors.—Inhibitor concentrations were determined by the UV absorbance spectrum using the published millimolar extinction coefficients for 9-dazadenine of 8.5 at 275 nm at pH 7.0.
Assays.—The direct spectrophotometric assay for the conversion of MTA into adenine was measured as the decrease in absorbance at 274 nm. At 274 nm, Δε between MTA and adenine is at a maximum and produces a spectral change of 1.6 absorbance units/cm/mM (DeWolf, W. E. Jr., Fullin, F. A., and Schramm, V. L. (1979) J. Biol. Chem. 254, 10868–10875)
Slow-Onset Inhibition and Inhibition Constants.—The kinetics for slow onset inhibition and the Ki measurement was carried out by adding a known concentration of enzyme (1–5 nM) to a reaction mixture containing a substrate concentration of 200 μM. This concentration corresponds to an OD of 0.7–1.1 at […]. The formation of product was monitored as a decrease in absorbance at 274 nm. Conditions for Ki* determination used high concentrations of substrate. Two controls, one having no inhibitor and the other no enzyme were included in the experiment. The Ki values MTAP for the various compounds were calculated by fitting in the ratio of initial rates in the presence of inhibitor to without any inhibitor versus the inhibitor concentration, for the known Km and substrate concentration into the following expression.
Where Vo′ is the rate in the presence of inhibitor • Vo rate in the absence of inhibitor • [I] inhibitor concentration • And [S] is the substrate concentration
And the Ki* was calculated by fitting to the following expression
Where Vs′ is the steady-state rate following attainment of equilibrium in the presence inhibitor, and Vs is the steady-state rate in the control having no inhibitor. Both these equations are valid for competitive type inhibition.

mouse liver MTAP = target: T2, mouse liver MTAP (Mus musculus, UniProt Q9CQ65); test: MTAP activity in liver extracts of treated mice; type: in vivo
T2 construct: from tissue; host or cells: mouse liver protein extract
T2 sequence (Q9CQ65 1-283): T1 sequence (Q9CQ65 1-283)
Protocol: as §1, with “Following” for “5′-Methylthio-Immucillin-A (5′-methylthio-ImmA) (10 micromoles) was administered to mice orally, by interperitoneal injection or by intravenous injection. Following”

[2] = oral administration of 10 μmoles

CSC[C@H]1N[C@@H](c2c[nH]c3c(N)ncnc23)C(O)[C@H]1O (some centres unmarked) [5′-methylthio-ImmA]
inhibition of MTAP in mouse blood compared to control blood [1]: > 90%
Ki (MTAN; Ki*, equilibrium dissociation constant after slow-onset, tight binding inhibition): 0.077 ± 0.02 nM
Ki (MTAN; Ki, initial inhibition constant): 0.13 ± 0.012 nM
Ki* (MTAN; equilibrium dissociation constant after slow-onset, tight binding inhibition): in the pM range
reduction of MTAP activity of liver extract (mouse liver MTAP; intraperitoneal injection of 0.1 micromole): 70%
reduction of MTAP activity of liver extract (mouse liver MTAP; intraperitoneal injection of 1.0 micromole): 77%
MTAP activity in liver extracts (in words) (mouse liver MTAP; intravenous injection): no detectable MTAP activity
inhibition of liver MTAP (mouse liver MTAP; intravenous injection): > 95%
inhibition of liver MTAP (mouse liver MTAP; [2]): 90%
oral availability to MTAP inside tissues (in words) (mouse liver MTAP; [2]): orally available
rate of conversion of MTA to products by MTAP in extracts of liver (mouse liver MTAP; oral administration of 10 μmoles, control 1.0): 0.09 nMole/min/mg of liver protein extract
